Results: PubChem BioAssay AID652109 (The Scripps Research Institute Molecular Screening Center, 2013)
The source made the active and inactive calls. No rule for the calls is given here.

target: Serine/threonine-protein phosphatase PP1-alpha catalytic subunit (Homo sapiens) (UniProt P62136); assay: PP1 phosphatase inhibitors, late-stage follow-up, biochemical, OMFP substrate, fluorescence (AID 652109); details: PP1 dephosphorylation of OMFP, at 6.7 µM, active compounds read high
Sequence (P62136 whole entry, looked up): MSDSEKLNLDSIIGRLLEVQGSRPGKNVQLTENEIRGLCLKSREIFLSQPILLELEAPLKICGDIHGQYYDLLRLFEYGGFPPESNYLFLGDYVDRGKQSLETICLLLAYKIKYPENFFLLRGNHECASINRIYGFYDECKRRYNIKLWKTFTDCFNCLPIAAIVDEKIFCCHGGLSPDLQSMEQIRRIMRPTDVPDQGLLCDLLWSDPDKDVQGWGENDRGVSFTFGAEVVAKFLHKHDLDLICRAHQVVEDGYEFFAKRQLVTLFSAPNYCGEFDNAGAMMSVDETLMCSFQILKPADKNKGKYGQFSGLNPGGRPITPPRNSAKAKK

Row | SMILES | inhibition
1 | CCCCN(CC)c1nc(N)c2c(N)nc(OCC)cc2c1C#N | 3.48% (inactive)
2 | CCOC(=O)c1cnc(-n2nc(C)cc2C)nc1NCCc1ccccc1 | 65.2%
3 | COc1cnc(-c2ccccn2)nc1Sc1ccccc1 | 60.7%
4 | O=C(O)c1cc(-c2ccc(Cl)c(Cl)c2)n(-c2ccccc2)n1 | 60.5%
5 | Cc1ccc(-n2nc(C(=O)O)cc2-c2ccc(Cl)cc2)cc1 | 56%
6 | Oc1ccc(/C=N/Nc2cc(N3CCOCC3)nc(N3CCOCC3)n2)c(O)c1 | 5.24% (inactive)
7 | c1ccc(Nc2nc(-c3ccccn3)cs2)cc1 | 63.7%
8 | Cc1[nH]n(-c2ccccc2)c(=O)c1C(c1ccc([N+](=O)[O-])cc1)c1c(C)[nH]n(-c2ccccc2)c1=O | -0.696% (inactive)
9 | COc1cnc(-c2ccccn2)nc1Sc1ccc(Cl)cc1 | 53.2%
10 | N#Cc1c(N2CCCC(O)C2)nc(N)c2c(N)nc3c(c12)CC(=O)N3C12CC3CC(CC(C3)C1)C2 (centres undefined) | 8.91% (inactive)
11 | Cc1ccc(C(=O)NNc2cc(N3CCCC3)nc(N3CCCC3)n2)cc1 | 3.05% (inactive)
12 | COc1ccc2c(Cl)c(C(=O)N/N=C/c3ccc4c(c3)OCO4)sc2c1 | 23% (inactive)
13 | CC(C)(CS(=O)(=O)[O-])NC(=O)CC[N+](C)(C)CCO | 49.4%
14 | O=C1Nc2ccccc2N2CCCC12 (centres undefined) | -0.206% (inactive)
15 | COc1ccc(Cn2c(N)c(C(=O)NCc3ccco3)c3nc4ccccc4nc32)cc1OC | 3.29% (inactive)
16 | COc1cnc(-c2ccccn2)nc1Oc1cccc(Cl)c1 | 49.5%
17 | CN1CCN(C(c2ccccn2)c2cc(Cl)c3cccnc3c2O)CC1 (centres undefined) | 74%
18 | COc1ccc(NC(=O)C2C3CCC(O3)C2C(=O)O)c(OC)c1 (centres undefined) | 34.9%
19 | N#Cc1c(-c2ccc(Cl)cc2)cc(-c2cccs2)nc1SCC(=O)O | 46.6%
20 | CCCCn1c(NC(=O)c2ccco2)c(C(=O)OCC)c2nc3ccccc3nc21 | -4% (inactive)
21 | O=S(=O)(Cc1cc(NCc2ccccc2)nc(-c2ccccn2)n1)c1ccccc1 | 44.6%
22 | CC(=O)C(C(C)=O)C1(O)C(=O)c2ccccc2C1=O | 0.756% (inactive)

Row | SMILES | inhibition
23 | CCCN(CC1CC1)c1nc(N)c2c(N)nc(OC)cc2c1C#N | 3.83% (inactive)
24 | O=C(NC1(O)C(=O)c2ccccc2C1=O)c1c(Cl)cccc1Cl | 0.361% (inactive)
25 | Cc1ccc(C(=O)NC2(O)C(=O)c3ccccc3C2=O)cc1C | -0.875% (inactive)
26 | COc1cnc(-c2ccccn2)nc1Sc1cccc(Cl)c1 | 67.6%
27 | CCOC(=O)c1cnc(-n2cc(C)cn2)nc1NCc1ccc2c(c1)OCO2 | 12.9% (inactive)
28 | Cc1nnc(NC(=O)C2C3C=CC(O3)C2C(=O)O)s1 (centres undefined) | 8.42% (inactive)
29 | COc1ccc(Sc2nc(-c3ccccn3)ncc2OC)cc1 | 71.2%
30 | CCOC(=O)c1sc2nc3c(SCC(=O)O)cc(C(=O)c4cc(F)ccc4O)cn3c(=O)c2c1C | 67.8%
31 | COc1cc(Br)c(C(=O)c2nccc3cc(OC)c(OC)cc23)cc1OC | -4.95% (inactive)
32 | COc1ccccc1Sc1nc(-c2ccccn2)ncc1OC | 65.9%
33 | COc1ccc(OCCCC(=O)Nc2nc(-c3ccccn3)cs2)cc1 | 33.3%
34 | Oc1ccccc1/C=N/Nc1cc(N2CCCC2)nc(N2CCCC2)n1 | 4.78% (inactive)
35 | COc1ccc(Cl)cc1C(=O)Nc1cccc(-c2ccc3nncn3n2)c1 | 60.4%
36 | Nc1nc(-c2ccccn2)nc(N)c1Cc1ccc(Cl)cc1Cl | 65.9%
37 | O=C(Nc1nc(-c2ccccn2)cs1)C1CC(=O)N(c2ccc3c(c2)OCCO3)C1 (centres undefined) | 49.4%
38 | O=C(O)c1cc(-c2ccc(Cl)cc2)n(-c2cccc(Cl)c2)n1 | 57.5%
39 | O=c1[nH]c(Nc2ccccc2)cc2ccccc12 | 9.24% (inactive)
40 | COc1cnc(-c2ccccn2)nc1Sc1ccc(C)cc1 | 65.8%
41 | O=C(O)C1C2CCC(O2)C1C(=O)NC1CCCCC1 (centres undefined) | 25% (inactive)
42 | CCOC(=O)C1=C(C)OC2(O)c3ccccc3C(=O)C12O (centres undefined) | 18.6% (inactive)
43 | Clc1ccc(-n2nnnc2-c2cnc(-c3ccccn3)nc2-c2cccs2)cc1 | 67.4%
44 | CCOC(=O)c1cnc(-n2nc(C)cc2C)nc1NCc1ccccc1 | 58.3%

Row | SMILES | inhibition
45 | O=C(NC1(O)C(=O)c2ccccc2C1=O)c1ccccc1 | -2.88% (inactive)
46 | COc1cnc(-c2ccccn2)nc1Oc1cccc(C(F)(F)F)c1 | -4.5% (inactive)
47 | O=C(NC1(O)C(=O)c2ccccc2C1=O)c1ccc(C(F)(F)F)cc1 | 6.8% (inactive)
48 | CCOC(=O)c1sc(N2C(=O)C(O)=C(C(=O)c3ccco3)C2c2cccc([N+](=O)[O-])c2)nc1C (centres undefined) | 32.7%
49 | O=C(O)c1cc(-c2ccc(Cl)c(Cl)c2)n(-c2ccc(F)cc2)n1 | 57.1%
50 | CCOC(=O)c1nn(-c2ccc(C)cc2)c(=O)c2c(N)scc12 | 6.08% (inactive)
51 | Nc1cc2nsnc2cc1Br | -4.44% (inactive)
52 | COc1cnc(-c2ccccn2)nc1Sc1ccc(F)cc1 | 52.5%
53 | CCOC(=O)c1cnc(-n2nc(C)cc2C)nc1NC1CCCCC1 | 57.6%
54 | COc1ccc(NC(=S)Nc2ccc3nsnc3c2)cc1 | 2.7% (inactive)
55 | O=C1CCCC2=C1C1(O)C(=O)c3ccccc3C1(O)O2 (centres undefined) | 3.09% (inactive)
56 | COc1cnc(-c2ccccn2)nc1Sc1ccccc1Cl | 68.5%
57 | COc1ccc(CN2C(=O)Cc3c2nc(N)c2c(N)nc(N4CCCCC4)c(C#N)c32)cc1 | 6.16% (inactive)
58 | Oc1cccc(/C=N/Nc2cc(N3CCCC3)nc(N3CCCC3)n2)c1 | 23.5% (inactive)
59 | CCOc1ccc(NC(=S)Nc2ccc3nsnc3c2)cc1 | 4.8% (inactive)
60 | CCOC(=O)c1cnc(-n2nc(C)cc2C)nc1NC(C)c1ccccc1 (centres undefined) | 68.8%
61 | COc1ccc(C(=O)c2nccc3cc(OC)c(OC)cc23)cc1OC | 0.984% (inactive)
62 | Cc1cc(C)c(S(=O)(=O)/N=C2\C=C(Sc3ncn[nH]3)C(=O)c3ccccc32)cc1C | 5.9% (inactive)
63 | CCn1c2ccccc2c2cc(NC(=O)COC(=O)c3ccc(NC(=O)CC#N)cc3)ccc21 | 47.2%
64 | c1ccc(-c2nccc(-c3ccc(-n4cnc5ccccc54)cc3)n2)nc1 | 62.4%
